Measured values published in ChEMBL document CHEMBL3875173, “Phenyltetrazolyl-phenylamides: Substituent impact on modulation capability and selectivity toward the efflux protein ABCG2 and investigation of interaction with the transporter” (Eur J Med Chem, 2016).

Experiments:
ABCG2 [1] = target: T1, ABCG2 (Homo sapiens, UniProt Q9UNQ0); test: Inhibition of recombinant human GFP-fused ABCG2 expressed in MDCK2 cells assessed as reduction in Hoechst 33342 efflux at 10 uM preincubated for 30 mins followed by Hoechst 33342 addition measured immediately at 60 sec time interval for 120 mins by fluorescence assay relative to XR9577; format: cell-based, MDCK-II; details: MDCK2 cells expressing recombinant human GFP-fused ABCG2, probe Hoechst 33342, read-out: Imax
T1 sequence (Q9UNQ0 whole entry): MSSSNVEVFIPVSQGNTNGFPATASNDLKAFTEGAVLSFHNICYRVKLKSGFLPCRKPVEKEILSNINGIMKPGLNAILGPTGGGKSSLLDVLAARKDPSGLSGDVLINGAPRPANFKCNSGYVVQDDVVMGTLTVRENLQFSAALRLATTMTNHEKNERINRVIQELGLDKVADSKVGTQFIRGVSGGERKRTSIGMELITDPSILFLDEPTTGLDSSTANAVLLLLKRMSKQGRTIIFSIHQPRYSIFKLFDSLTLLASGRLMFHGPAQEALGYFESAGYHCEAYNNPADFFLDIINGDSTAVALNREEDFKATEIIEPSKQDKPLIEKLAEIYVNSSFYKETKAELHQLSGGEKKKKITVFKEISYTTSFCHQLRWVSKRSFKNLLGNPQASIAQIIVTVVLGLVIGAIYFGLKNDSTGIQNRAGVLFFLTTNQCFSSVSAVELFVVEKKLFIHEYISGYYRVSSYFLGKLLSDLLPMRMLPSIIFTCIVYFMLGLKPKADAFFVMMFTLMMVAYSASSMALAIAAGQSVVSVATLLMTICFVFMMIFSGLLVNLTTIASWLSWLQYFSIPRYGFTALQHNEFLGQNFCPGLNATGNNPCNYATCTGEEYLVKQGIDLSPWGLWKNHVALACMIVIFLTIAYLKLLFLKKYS

[2] = target: T2, Broad substrate specificity ATP-binding cassette transporter ABCG2 (Homo sapiens, UniProt Q9UNQ0); test: Inhibition of recombinant human GFP-fused ABCG2 expressed in MDCK2 cells assessed as reduction in Hoechst 33342 efflux preincubated for 30 mins followed by Hoechst 33342 addition measured immediately at 60 sec time interval for 120 mins by fluorescence assay; format: cell-based, MDCK-II
T2 sequence (Q9UNQ0 whole entry): T1 sequence (Q9UNQ0 whole entry)

ABCG2 [3] = target: T1, ABCG2; test: Inhibition of recombinant human GFP-fused ABCG2 expressed in MDCK2 cells assessed as reduction in pheophorbide A efflux at 10 uM preincubated for 30 mins followed by pheophorbide A addition measured after 2 hrs by flow cytometry relative to XR9577; format: cell-based, MDCK-II; details: MDCK2 cells expressing recombinant human GFP-fused ABCG2, probe pheophorbide A, read-out: Imax
[4] = target: T2, Broad substrate specificity ATP-binding cassette transporter ABCG2; test: Inhibition of recombinant human GFP-fused ABCG2 expressed in MDCK2 cells assessed as reduction in pheophorbide A efflux preincubated for 30 mins followed by pheophorbide A addition measured after 2 hrs by flow cytometry; format: cell-based, MDCK-II
ABCB1 [5] = target: T3, ABCB1 (Homo sapiens, UniProt P08183); test: Inhibition of ABCB1 in human A2780/ADR cells assessed as reduction in calcien-AM efflux at 10 uM preincubated for 30 mins followed by calcien-AM addition measured immediately at 60 sec time interval for 60 mins by fluorescence assay relative to cyclosporine A; format: cell-based; details: probe calcein-AM (printed calcien-AM), read-out: Imax
[6] = target: ATP-dependent translocase ABCB1 (Homo sapiens, UniProt P08183); test: Inhibition of ABCB1 in human A2780/ADR cells assessed as reduction in calcien-AM efflux preincubated for 30 mins followed by calcien-AM addition measured immediately at 60 sec time interval for 60 mins by fluorescence assay; format: cell-based
ABCB1 [7] = target: T3, ABCB1; test: Potency index, ratio of cyclosporine A IC50 to compound IC50 for ABCB1 in human A2780/ADR cells; format: cell-based; details: read-out: Ratio IC50
[8] = target: T2, Broad substrate specificity ATP-binding cassette transporter ABCG2; test: Non-competitive inhibition of recombinant human GFP-fused ABCG2 expressed in MDCK2 cells assessed as reduction in pheophorbide A efflux at 0.0178 to 0.1 uM preincubated for 30 mins followed by addition of varying levels of pheophorbide A by Lineweaver-Burk plot analysis; format: cell-based; details: mdck-ii
[9] = target: T2, Broad substrate specificity ATP-binding cassette transporter ABCG2; test: Competitive inhibition of recombinant human GFP-fused ABCG2 expressed in MDCK2 cells assessed as reduction in Hoechst 33342 efflux at 0.01 to 0.1 uM preincubated for 30 mins followed by addition of varying levels of Hoechst 33342 by Lineweaver-Burk plot analysis; format: cell-based; details: mdck-ii
ABCG2 [10] = target: T1, ABCG2; test: Potency index, ratio of Ko143 IC50 to compound IC50 for recombinant human GFP-fused ABCG2 expressed in MDCK2 cells assessed as reduction in Hoechst 33342 efflux; format: cell-based; details: MDCK2 cells expressing recombinant human GFP-fused ABCG2, probe Hoechst 33342, read-out: Ratio IC50
ABCG2 [11] = target: T1, ABCG2; test: Potency index, ratio of Ko143 IC50 to compound IC50 for recombinant human GFP-fused ABCG2 expressed in MDCK2 cells assessed as reduction in pheophorbide A efflux; format: cell-based; details: MDCK2 cells expressing recombinant human GFP-fused ABCG2, probe pheophorbide A, read-out: Ratio IC50

T3 sequence (P08183 whole entry): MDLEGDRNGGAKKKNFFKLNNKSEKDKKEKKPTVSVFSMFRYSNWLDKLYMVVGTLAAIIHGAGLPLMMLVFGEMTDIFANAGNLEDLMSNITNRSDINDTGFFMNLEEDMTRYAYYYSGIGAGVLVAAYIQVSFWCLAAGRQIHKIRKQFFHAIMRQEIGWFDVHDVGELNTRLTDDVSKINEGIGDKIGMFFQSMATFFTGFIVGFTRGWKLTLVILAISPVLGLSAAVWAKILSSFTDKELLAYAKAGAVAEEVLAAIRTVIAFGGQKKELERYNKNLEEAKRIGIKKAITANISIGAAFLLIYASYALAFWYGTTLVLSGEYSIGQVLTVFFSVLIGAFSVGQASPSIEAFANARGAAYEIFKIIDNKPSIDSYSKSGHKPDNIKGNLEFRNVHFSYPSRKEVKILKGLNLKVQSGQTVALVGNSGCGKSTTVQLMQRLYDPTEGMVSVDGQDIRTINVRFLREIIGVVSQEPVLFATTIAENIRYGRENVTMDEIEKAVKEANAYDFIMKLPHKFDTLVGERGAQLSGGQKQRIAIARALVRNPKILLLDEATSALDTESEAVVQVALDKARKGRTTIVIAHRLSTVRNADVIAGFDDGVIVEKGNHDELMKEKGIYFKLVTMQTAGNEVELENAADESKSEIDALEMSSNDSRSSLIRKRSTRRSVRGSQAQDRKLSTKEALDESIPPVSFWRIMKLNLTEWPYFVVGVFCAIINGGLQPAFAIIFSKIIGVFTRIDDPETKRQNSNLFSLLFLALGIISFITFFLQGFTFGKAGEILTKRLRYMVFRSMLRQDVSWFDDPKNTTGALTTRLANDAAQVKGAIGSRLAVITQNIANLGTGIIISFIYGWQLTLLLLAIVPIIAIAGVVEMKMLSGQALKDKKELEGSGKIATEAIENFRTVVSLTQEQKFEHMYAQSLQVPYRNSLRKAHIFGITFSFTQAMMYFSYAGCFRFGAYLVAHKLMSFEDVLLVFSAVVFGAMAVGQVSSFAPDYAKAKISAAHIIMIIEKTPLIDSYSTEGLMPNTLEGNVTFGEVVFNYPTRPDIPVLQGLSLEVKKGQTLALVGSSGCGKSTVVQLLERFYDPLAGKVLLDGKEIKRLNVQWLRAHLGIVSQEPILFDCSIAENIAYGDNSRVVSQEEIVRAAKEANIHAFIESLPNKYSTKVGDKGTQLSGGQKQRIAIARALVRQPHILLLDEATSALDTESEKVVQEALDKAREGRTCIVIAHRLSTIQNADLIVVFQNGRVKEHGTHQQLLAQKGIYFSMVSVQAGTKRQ
Sequence of ATP-dependent translocase ABCB1 (P08183 whole entry): as above

| Compound | Emax at 2 h, 10 µM (ABCG2 [1]) | IC50 [2] | Emax at 2 h, 10 µM (ABCG2 [3]) | IC50 [4] | inhibition at 1 h, 10 µM (ABCB1 [5]) | IC50 [6] | selectivity ratio (ABCB1 [7]) | inhibition (INH) [8] | inhibition (INH) [9] | selectivity ratio (ABCG2 [10]) | selectivity ratio (ABCG2 [11]) |
| --- | --- | --- | --- | --- | --- | --- | --- | --- | --- | --- | --- |
| COc1ccc(C(=O)Nc2ccccc2-c2nnn(-c3ccc(SC)cc3)n2)cc1 | 100% | 132 nM | 85% | 251 nM | ≤ 25% | 4200 nM |  |  |  |  |  |
| CCCc1ccc(C(=O)Nc2ccccc2-c2nnn(-c3ccc(O)cc3)n2)cc1 | 106% | 204 nM | 107% | 129 nM | ≤ 25% | 434 nM | 3 |  |  |  |  |
| COc1ccc(C(=O)Nc2ccccc2-c2nnn(-c3ccc(OC)cc3)n2)cc1 | 100% | 199 nM | 92% | 300 nM | ≤ 25% | 2880 nM |  |  |  |  |  |
| CCOc1ccc(-n2nnc(-c3ccccc3NC(=O)c3ccccc3[N+](=O)[O-])n2)cc1 | 72% | 308 nM |  |  |  |  |  |  |  |  |  |
| CSc1ccc(-n2nnc(-c3ccccc3NC(=O)c3ccc(C(F)(F)F)cc3)n2)cc1 |  | > 10000 nM |  |  |  |  |  |  |  |  |  |
| O=C(Nc1ccccc1-c1nnn(-c2ccc(Cl)cc2)n1)c1ccc([N+](=O)[O-])cc1 |  | > 10000 nM |  |  |  |  |  |  |  |  |  |
| COc1ccc(C(=O)Nc2ccccc2-c2nnn(-c3ccccc3)n2)cc1OC | 102% | 832 nM | 86% | 511 nM |  |  |  |  |  |  |  |
| CSc1ccc(-n2nnc(-c3ccccc3NC(=O)c3ccc([N+](=O)[O-])cc3)n2)cc1 |  | > 10000 nM |  |  |  |  |  |  |  |  |  |
| COc1ccc(C(=O)Nc2ccccc2-c2nnn(-c3ccc(Oc4ccccc4)cc3)n2)cc1 |  | > 10000 nM |  |  |  |  |  |  |  |  |  |
| COc1ccc(-n2nnc(-c3ccccc3NC(=O)c3ccccc3)n2)cc1OC | 104% | 230 nM | 95% | 212 nM | ≤ 25% | 4030 nM |  |  |  |  |  |
| O=C(Nc1ccccc1-c1nnn(-c2ccccc2)n1)c1ccc(C(F)(F)F)cc1 | 100% | 4390 nM | 100% | 3630 nM |  |  |  |  |  |  |  |
| COc1ccc(-n2nnc(-c3ccccc3NC(=O)c3cccc([N+](=O)[O-])c3)n2)cc1 | 57% | 168 nM | 56% | 247 nM |  |  |  |  |  |  |  |
| CCCc1ccc(C(=O)Nc2ccccc2-c2nnn(-c3ccccc3)n2)cc1 | 100% | 212 nM | 85% | 96.6 nM | ≤ 25% | 8140 nM |  |  |  |  |  |
| COc1ccc(-n2nnc(-c3ccccc3NC(=O)c3ccc(C(F)(F)F)cc3)n2)cc1OC | 80% | 330 nM |  |  | ≤ 25% | 10200 nM |  |  |  |  |  |
| CCCc1ccc(C(=O)Nc2ccccc2-c2nnn(-c3ccc(Oc4ccccc4)cc3)n2)cc1 |  | > 10000 nM |  |  |  |  |  |  |  |  |  |
| COc1ccc(C(=O)Nc2ccccc2-c2nnn(-c3ccc(Cl)cc3)n2)cc1 | 59% | 223 nM |  |  |  |  |  |  |  |  |  |
| CSc1ccc(-n2nnc(-c3ccccc3NC(=O)c3ccccc3[N+](=O)[O-])n2)cc1 | 91% | 221 nM | 77% | 117 nM | ≤ 25% | 9780 nM |  |  |  |  |  |
| COc1ccc(C(=O)Nc2ccccc2-c2nnn(-c3ccccc3)n2)cc1 | 101% | 200 nM | 93% | 208 nM | ≤ 25% | 5470 nM |  | Active | Active |  |  |
| COc1ccc(C(=O)Nc2ccccc2-c2nnn(-c3ccc(OC)c(OC)c3)n2)cc1 | 100% | 319 nM |  |  | ≤ 25% | 3200 nM |  |  |  |  |  |
| O=C(Nc1ccccc1-c1nnn(-c2ccccc2)n1)c1ccc([N+](=O)[O-])cc1 | 60% | 150 nM | 69% | 321 nM |  |  |  |  |  |  |  |
| O=C(Nc1ccccc1-c1nnn(-c2ccccc2)n1)c1ccccc1[N+](=O)[O-] | 57% | 280 nM | 76% | 458 nM | < 10% |  |  |  |  |  |  |
| CC(C)c1ccc(-n2nnc(-c3ccccc3NC(=O)c3ccc(C(F)(F)F)cc3)n2)cc1 |  | > 10000 nM |  |  |  |  |  |  |  |  |  |
| CCCc1ccc(C(=O)Nc2ccccc2-c2nnn(-c3ccc(OC(=O)c4ccc(CCC)cc4)cc3)n2)cc1 |  | > 10000 nM |  |  |  |  |  |  |  |  |  |
| O=C(Nc1ccccc1-c1nnn(-c2ccccc2)n1)c1ccccc1 | 90% | 66.9 nM | 109% | 64 nM | ≤ 25% | 21800 nM |  |  |  | 3 to 4 | 3 to 4 |
| COc1ccc(-n2nnc(-c3ccccc3NC(=O)c3ccccc3[N+](=O)[O-])n2)cc1 | 76% | 266 nM | 61% | 311 nM | ≤ 25% | 6200 nM |  |  |  |  |  |
| CCOc1ccc(-n2nnc(-c3ccccc3NC(=O)c3ccc(OC)cc3)n2)cc1 | 50% | 793 nM |  |  |  |  |  |  |  |  |  |
| CCCc1ccc(C(=O)Nc2ccccc2-c2nnn(-c3ccc(SC)cc3)n2)cc1 | 76% | 783 nM | 69% | 679 nM |  |  |  |  |  |  |  |
| COc1ccc(C(=O)Nc2ccccc2-c2nnn(-c3ccc(C(C)C)cc3)n2)cc1 | 97% | 136 nM | 95% | 131 nM | ≤ 25% | 19400 nM |  |  |  |  |  |
| O=C(Nc1ccccc1-c1nnn(-c2ccccc2)n1)c1cccc([N+](=O)[O-])c1 | 91% | 127 nM | 98% | 123 nM | ≤ 25% | 9400 nM |  |  |  |  |  |
